Results: PMC9518609, “Design and synthesis of new trimethoxylphenyl-linked combretastatin analogues loaded on diamond nanoparticles as a panel for ameliorated solubility and antiproliferative activity” (Journal of Enzyme Inhibition and Medicinal Chemistry, 2022)

Assays:
Assay type in all cases: cell-based
Bcl-2 = assay: ELISA measurement of Bcl-2 level in MDA-MB-231 cells; settings: MDA-MB-231, at IC50, 24 h
From the text: p53, Bax, and Bcl-2 are key regulators of the apoptosis process to keep the balance between viable and dead normal cells. Deregulation of these proteins is a common feature responsible for uncontrolled cancer cell growth. In this test, the protein expression of apoptotic regulators was examined using ELISA analysis. […]
p53, Bax, and Bcl2 enzyme activities in MDA-MB-231 cells were investigated in the presence of compounds 6 and 12 at their IC50 concentration (µM). The levels of the tumour suppressor gene p53, apoptotic markers Bax as well as the anti-apoptotic marker Bcl-2 were assessed using the p53 ELISA kit, Human Bax ELISA kit, and Bcl-2 Elisa kit. The procedure of the used kits was done according to the manufacturer's instructions and was conducted as reported earlier. […]
4.3.4.2. Effect on p53, Bax and Bcl-2 p53, Bax and Bcl2 enzyme activities in MDA-MB-231 cells were detected in the presence of compounds 6 and 12 at their IC50 concentration (µM). The levels of the tumor suppressor gene p53, apoptotic markers Bax as well as the anti-apoptotic marker Bcl-2 were assessed using p53 ELISA kit, Human Bax ELISA kit and Bcl-2 Elisa kit. The procedure of the used kits was done according to the manufacturer's instructions. […] The samples were measured at 450 nm in ROBONEK P2000 ELISA reader. […]

MDA-MB-231 = assay: MTT cytotoxic activity against breast MDA-MB-231 cancer cell line; settings: MTT assay, 24 h treatment
From the text: All the synthesised compounds were screened for their cytotoxic activity against breast MDA-MB-231 cancer cell line and compounds 6 and 12 against breast MCF-10A cell line taking CA-4 as a positive control for the analysis. The in vitro cytotoxicity results of the prepared compounds were systematised in Table 1. […] Structurally, the prepared molecules contain three structural variations; including rotatable hydrazide derivatives, the core exchange with imidazolone ring, and the ring expansion with triazinone motif. […] It is noticed that directly attached benzene ring to triazinone scaffold (compound 6) or bioisosteric group (thiazolyl ester) as in compound 12, may contribute to the astonishing cytotoxicity against breast MDA-MB-231 cancer cells.
To measure the cytotoxic activity of the synthesised derivatives 2a–13e in breast cancer (MDA-MB-231) cell line. MTT assay method was applied to assess cell viability assay. All experimental steps were conducted as reported earlier.
(§1) Part I: Biological Studies
(§2) 4.3. Biological evaluation
(§3) 4.3.1. Cytotoxic activity evaluation
(§4) The cytotoxic actvity of the synthesized derivatives 2a-13e was measured in MDA-MB-231 breast cancer cell line and derivatives 6 and 12 in MCF-10A […].
(§5) Cell viability assay was assessed using MTT assay method. Cells at density of 1 x 104 were seeded in a 96-well plate at 37 °C for 24 h under 5% CO2. After incubation, the cells were treated with different concentrations of the test schiff bases 2a-13e and incubated for 24 h, then 20 µl of MTT solution at 5 mg/mL was applied and incubated for 4 h at 37 °C.
Dimethyl sulphoxide (DMSO) in volume of 100 µl was added to each well to dissolve the purple formazan that had formed. The color intensity of the formazan product, which represents the growth condition of the cells, is quantified by using an ELISA plate reader (EXL 800, USA) at 570 nm absorbance. The experimental conditions were carried out with at least three replicates, and the experiments were repeated at least three times. […]

MDA-MB-231 cells = assay: Annexin V-FITC/PI apoptosis staining assay; settings: MDA-MB-231, at IC50, 24 h; for percentage of late apoptotic cells (upper right quadrant): untreated control 0.13%
Protocol: The effect of compounds 6 and 12 on apoptosis percentage rate was carried out using annexin V-FITC/Propidium iodide (PI) biparametric cytofluorimetric double staining analysis in MDA-MB-231 cells.
Apoptosis in MDA-MB-231 cells was investigated using a fluorescent Annexin V-FITC/PI detection kit (BioVision Annexin V-FITC Apoptosis Detection Kit, Catalog #: K101) by flow cytometry assay. All experimental steps were conducted as reported earlier. […]
4.3.4.1. Apoptosis assay for compounds 6 and 12
Apoptosis in MDA-MB-231 cells was investigated using fluorescent Annexin V-FITC/ PI detection kit (BioVision Annexin V-FITC Apoptosis Detection Kit, Catalog #: K101) by flow cytometry assay. MDA-MB-231 cells at a density of 2 × 10^5 per well were treated […]
stained with Annexin V-FITC/ PI dye for 15 min in the dark at 37 °C. […]
All experiments were done in triplicates. […]

β-tubulin = β-tubulin polymerisation inhibition assay (Human Beta-tubulin ELISA kit) on MDA-MB-231 cells; settings: MDA-MB-231 cell line, each compound at its IC50 concentration
Protocol: Trimethoxy phenyl fragment-containing natural stilbenoid-derived molecules, such as Colchicine and CA-4 bind to β-tubulin subunit at the colchicine binding site resulting in inhibition of microtubule assembly and suppression of its formation. […] From the obtained results it can be concluded that the antiproliferative activity of the synthesised triazinone-linked CA-4 derivatives may be derived from the inhibition of microtubule assembly.
Triazinone derivatives 6 and 12 were assessed for their tubulin inhibitory activity according to manufacturer’s instructions using # abcam Human Beta-tubulin simple step ELISA Kit ab245722.
as §1, §2, §3, §4, §5
Dimethyl sulphoxide (DMSO) in volume of 100 µl was added to each well to dissolve the purple formazan that had formed. The color intensity of the formazan product, which represents the growth condition of the cells, is quantified by using an ELISA plate reader (EXL 800, USA) at 570 nm absorbance. The experimental conditions were carried out with at least three replicates, and the experiments were repeated at least three times.
4.3.2. Tubulin inhibitions Assay
Compounds 6, 12 and CA-4 were evaluated for their tubulin inhibitory activity according to manufacturer’s instructions using # abcam Human Beta-tubulin simplestep ELISA Kit ab245722. MDA-MB-231 cells were trypsinized, counted and seeded at the 2 × 105 into 96-well micro titer plates. […]
(O.D.) was measured at 450±10 nm using microplate reader (Spectromax Plus 96 well plate […]

Compound | Bcl-2 level decrease compared with no treatment control (Bcl-2) [fold] | IC50 (MDA-MB-231) [nM] | increase of percentage of early apoptotic cells relative to no treatment control (MDA-MB-231 cells) [fold] | increase of percentage of total apoptotic cells compared with no treatment control (MDA-MB-231 cells) [fold] | percentage of late apoptotic cells (upper right quadrant) (MDA-MB-231 cells) [%] | % Inhibition of β-tubulin polymerisation (β-tubulin) [%] | IC50 (MDA-MB-231; Homo sapiens, MDA-MB-231) [nM]
ethyl 2-(2-(6-oxo-5-(3,4,5-trimethoxybenzylidene)-3–(3,4,5-trimethoxyphenyl)-5,6-dihydro-1,2,4-triazin-2(1H)-yl)thiazol-4-yl)acetate [Compound 12] | 2.96 | 1710 ± 110 | 4.36 | 14.98 | 17.68 | 68.28 ± 0.16 | –
COc1cc(C=C2N=C(c3cc(OC)c(OC)c(OC)c3)N(c3ccccc3)NC2=O)cc(OC)c1OC [Compound 6, 2-phenyl-5-(3,4,5-trimethoxybenzylidene)-3-(3,4,5-trimethoxyphenyl)-1,2-dihydro-1,2,4-triazin-6(5H)-one] | 6.49 | – | 6.80 | 21.86 | 23.28 | 77.61 ± 0.10 | 1360 ± 100
